# Measurements reported in patent US20120264735A1 (priority 2009, published 2012).
# Target: T1, c-Met kinase (recombinant c-Met) (Homo sapiens, UniProt P08581)
# T1 construct: 0.27 nM recombinant c-Met
# Experiment: In vitro kinase assay I (homogeneous time-resolved fluorescence tyrosine kinase assay)
# Format: biochemical
# How it was run: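 Biotinylated peptide (0.5 μM) phosphorylated by 0.2 nM recombinant c-Met with 50 μM MgATP, 60 min at room temperature, pH 7.4, 5% DMSO. EDTA stop; HTRF read with Eu-anti-phosphotyrosine antibody and streptavidin-APC. IC50 from 4-parameter logistic fit.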
# T1 sequence (P08581 25-1390): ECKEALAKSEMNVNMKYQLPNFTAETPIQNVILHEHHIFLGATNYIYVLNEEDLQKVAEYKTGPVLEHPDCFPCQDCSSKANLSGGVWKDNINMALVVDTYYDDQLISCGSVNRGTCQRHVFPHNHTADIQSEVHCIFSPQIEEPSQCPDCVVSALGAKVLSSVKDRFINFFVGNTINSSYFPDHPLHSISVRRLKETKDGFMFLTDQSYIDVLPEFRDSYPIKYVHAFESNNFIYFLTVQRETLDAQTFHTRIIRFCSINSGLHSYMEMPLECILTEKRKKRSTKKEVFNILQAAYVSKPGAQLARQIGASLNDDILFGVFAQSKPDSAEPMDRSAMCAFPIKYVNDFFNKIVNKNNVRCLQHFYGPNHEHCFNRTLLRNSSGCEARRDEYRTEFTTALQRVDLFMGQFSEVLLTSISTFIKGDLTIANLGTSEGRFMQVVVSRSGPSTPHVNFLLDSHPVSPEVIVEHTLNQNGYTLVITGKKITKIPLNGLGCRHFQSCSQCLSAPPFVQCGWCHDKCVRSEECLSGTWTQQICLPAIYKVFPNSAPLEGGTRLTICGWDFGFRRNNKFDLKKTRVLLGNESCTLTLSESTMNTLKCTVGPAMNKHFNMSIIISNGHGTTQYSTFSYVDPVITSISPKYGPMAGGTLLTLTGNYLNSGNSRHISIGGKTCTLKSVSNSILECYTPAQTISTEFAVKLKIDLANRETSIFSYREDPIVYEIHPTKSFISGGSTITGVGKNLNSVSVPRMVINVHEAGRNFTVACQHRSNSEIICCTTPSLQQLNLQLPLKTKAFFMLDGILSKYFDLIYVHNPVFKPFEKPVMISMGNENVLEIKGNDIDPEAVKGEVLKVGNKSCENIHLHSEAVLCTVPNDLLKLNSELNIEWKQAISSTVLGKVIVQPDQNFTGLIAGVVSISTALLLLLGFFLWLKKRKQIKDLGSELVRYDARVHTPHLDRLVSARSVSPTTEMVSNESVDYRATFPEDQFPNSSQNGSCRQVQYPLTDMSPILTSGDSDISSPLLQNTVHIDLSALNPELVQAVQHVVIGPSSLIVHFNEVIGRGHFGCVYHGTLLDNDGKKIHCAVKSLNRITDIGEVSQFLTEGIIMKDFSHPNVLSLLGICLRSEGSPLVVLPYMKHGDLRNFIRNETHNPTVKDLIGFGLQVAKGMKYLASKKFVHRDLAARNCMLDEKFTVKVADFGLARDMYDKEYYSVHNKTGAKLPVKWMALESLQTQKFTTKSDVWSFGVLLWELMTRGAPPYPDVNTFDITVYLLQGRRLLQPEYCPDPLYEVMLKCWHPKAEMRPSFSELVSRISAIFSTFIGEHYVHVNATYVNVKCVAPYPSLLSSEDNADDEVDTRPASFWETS
row,IC50,SMILES
1,< 100 nM,"Cn1cc(-n2ccc(=O)c(Cc3cccc(-c4ncc(O[C@@H]5COC[C@@H]5F)cn4)c3)n2)cn1 (racemic) [Example 390, rac-3-(3-{5-[(cis-4-fluorotetra-hydrofuran-3-yl}oxy]pyrimidin-2-yl}benzyl)-1-(1-methyl-1H-pyrazol-4-yl)pyridazin-4(1H)-one]"
2,100 to 1000 nM,"CCCn1cnc(-c2cccc(Cc3nn(-c4cnn(CCOCc5ccccc5)c4)ccc3=O)c2)n1 [Example 89, 1-{1-[2-(benzyloxy)ethyl]-1H-pyrazol-4-yl}-3-[3-(1-propyl-1H-1,2,4-triazol-3-yl)benzyl]pyridazin-4(1H)-one]"
3,< 100 nM,"CN(C)C1CCN(c2cnc(-c3cccc(Cc4nn(-c5cnn(C)c5)ccc4=O)c3)nc2)CC1 [Example 444, 3-(3-{5-[4-(dimethylamino)piperidin-1-yl]pyrimidin-2-yl}benzyl)-1-(1-methyl-1H-pyrazol-4-yl)pyridazin-4(1H)-one]"
4,< 100 nM,"CCn1cc(-n2ccc(=O)c(C(C)c3cccc(-c4ncc(OCC5CCO5)cn4)c3)n2)cn1 (single isomer, unassigned) [Example 296, 1-(1-ethyl-1H-pyrazol-4-yl)-3-[(1R or S)-1-{3-[5-(oxetan-2-ylmethoxy)primidin-2-yl]phenyl}ethyl]pyridazin-4(1H)-one]"
5,100 to 1000 nM,"CCOC(=O)Nc1cccc(Cc2nn(-c3cnn(C4CCOCC4)c3)ccc2=O)c1 [Example 91, ethyl [3-({4-oxo-1-[1-(tetrahydro-2H-pyran-4-yl)-1H-pyrazol-4-yl]-1,4-dihydropyridazin-3-yl}methyl)phenyl]carbamate]"
6,< 100 nM,"O=C(Nc1cccc(Cc2nn(-c3cc(F)cc(F)c3)ccc2=O)c1)OCCOCC(F)(F)F [Example 595, 2-(2,2,2-trifluoroethoxy)ethyl (3-{[1-(3,5-difluorophenyl)-4-oxo-1,4-dihydropyridazin-3-yl]methyl}phenyl)carbamate]"
7,100 to 1000 nM,"COCCNc1ccnc(-c2cccc(C(C)c3nn(-c4cnn(C)c4)ccc3=O)c2)n1 (single isomer, unassigned) [Example 695, 3-[(1R or S)-1-(3-{4-[(2-Methoxyethyl)amino]pyrimidin-2-yl}phenyl)ethyl]-1-(1-methyl-1H-pyrazol-4-yl)pyridazin-4(1H)-one]"
8,< 100 nM,"COCCn1cc(-n2ccc(=O)c(Cc3cccc(NC(=O)OCC(C)C)c3)n2)cn1 [Example 108, 2-methylpropyl [3-({1-[1-(2-methoxyethyl)-1H-pyrazol-4-yl]-4-oxo-1,4-dihydropyridazin-3-yl}methyl)phenyl]carbamate]"
9,< 100 nM,CCOc1cnc(-c2cccc(Cc3nn(-c4ccc(C(=O)NC)c(F)c4)ccc3=O)c2)nc1 [Example 723]
10,< 100 nM,"CC1CCC(=O)N1[C@@H](C)COC(=O)Nc1cccc(Cc2nn(-c3cnn(C)c3)ccc2=O)c1 (single isomer, unassigned) [Example 610, (2S)-2-[(2R or S)-2-methyl-5-oxopyrrolidin-1-yl]propyl (3-{[1-(1-methyl-1H-pyrazol-4-yl)-4-oxo-1,4-dihydropyridazin-3-yl]methyl}phenyl)carbamate]"
11,< 100 nM,"CCn1cc(-n2ccc(=O)c(C(C)c3cccc(-c4ncc(OCc5cc(C)no5)cn4)c3)n2)cn1 (single isomer, unassigned) [Example 301, 1-(1-ethyl-1H-pyrazol-4-yl)-3-[(1R or S)-1-(3-{5-[(3-methylisoxazol-5-yl)methoxy]pyrimidin-2-yl}phenyl)ethyl]pyridazin-4(1H)-one]"
12,< 100 nM,"CC(C)COC(=O)Nc1cccc(Cc2nn(-c3cnn(C(C)C)c3)ccc2=O)c1 [Example 105, 2-methylpropyl [3-({1-[1-(1-methylethyl)-1H-pyrazol-4-yl]-4-oxo-1,4-dihydropyridazin-3-yl}methyl)phenyl]carbamate]"
13,< 100 nM,"CCCOC(=O)Nc1cccc(Cc2nn(-c3ccncc3)ccc2=O)c1 [Example 30, propyl {3-[(4-oxo-1-pyridin-4-yl-1,4-dihydropyridazin-3-yl)methyl]phenyl}carbamate]"
